In patent publication US4767776A, “N-1H-tetrazol-5-yl-2-naphthalene carboxamides and their use as antiallergy and antiinflammatory agents” (Warner-Lambert Company, priority 1987, dated 1988):
Read-outs that look alike come from different tables or passages of the source.

System: human basophils
Test: Histamine release from human basophils (HHB)
Type: cell-based
Details: anti-IgE stimulus
Experimental: HISTAMINE RELEASE FROM HUMAN BASOPHILS
The blood samples are placed briefly on a rotary mixer. All glassware contacting the blood is siliconized. The blood is aliquoted into three plastic 50 ml centrifuge tubes and the volume is noted. Hespan (hydroxy ethyl starch), 0.5 ml per 1.0 ml of blood, is added. The tubes are inverted several times to mix and are left undisturbed at room temperature until a sharp separation is observed between the settled red cells and the leukocyte and platelet-rich plasma. This usually occurs within 35-45 minutes.
The plasma fraction is pipetted off and placed into two clean plastic 50 ml centrifuge tubes. […] The platelets remain in the plasma and are discarded. The pelleted leukocytes are shaken gently to disrupt the cell button and washed twice as described:
Wash 1. Five ml of HA buffer with 0.005M EDTA is added to the dispersed cells in each tube and gently vortexed. 25 ml of buffer is then added and gently vortexed. The samples are again centrifuged as described earlier. The supernatant is poured off, and the cell button in each tube is gently dispersed.
Wash 2. Five ml of HA buffer with EDTA is added to each tube to resuspend the cells. Leukocytes are then pooled into one tube and the volume is brought up to 40 ml with HA buffer with EDTA and gently vortexed. […] The supernatant fluid is discarded and the cell button is dispersed. Sixteen ml of HACM buffer is added to the washed cells and gently vortexed. A sample is prepared for Hematology, where a total white blood cell and platelet count is done using a Coulter Counter.
Aliquots (0.1 ml) of cells are added to assay tubes containing 0.4 ml of either 6% perchloric acid (for total histamine content), vehicle control (for spontaneous release), or drug. The tubes are incubated at room temperature for 8 minutes, and then placed in a 37° water bath for two more minutes. Buffer or challenge agents (at 37°) are added to the tube and they are incubated for an additional 45 minutes at 37°. The tubes are then spun at 2000 RPM (1200 g) for three minutes to pellet the cells and the supernatants are poured into assay cups.
If the compound is in solution, distilled water is used to bring it up to 100 ml total volume. If the drug is not in solution, 0.2 ml 1N NaOH (or HCl) is added, and then distilled water is added to yield 100 ml total solution. Five ml of the stock solution is diluted (1:2) with 5 ml of two times concentrated HACM (Hepes Albumin Calcium Magnesium) buffer to yield the stock working concentration of 150 μM. […] Further dilutions are made with HACM buffer for 33, 10, 3.3, 1.0 μM, etc.
Short ragweed and house dust extracts (Greer Laboratories, Inc.) are supplied as aqueous extracts in stock concentrations of 40,000 and 10,000 protein nitrogen units per milliliter (PNU/ml), respectively. Aqueous solutions of anti-IgE antisera (rabbit-raised antibody) are purchased from Dako via Accurate Chemicals. The tripeptide f-met-leu-phe (fmlp) from Vega Biochemicals is used. The aqueous solutions of ragweed, house dust, and anti-IgE are diluted 1:2 with two times concentrated HACM and then further diluted with HACM to yield final stock concentrations of […] for ragweed and house dust, and a 1:50 dilution for the anti-IgE antisera. […] The pH is adjusted to 7.4. Further dilutions for working solutions are made in HACM buffer. All stock and working solutions are stored at 4°. Working solutions comprise 1/6 of the final volume in the cell reaction, therefore, working solutions of challenge agents are made up six times the required final concentration (i.e., 600 μM f-met-leu-phe yields 100 μM final concentration in the cellular reaction).
Samples are run in triplicate, using either 1.5 ml polypropylene-capped reaction tubes, or 5.0 ml plastic uncapped tubes.

[1] = tested at 33 μM, read-out: % Inhibition of Histamine Release with Anti-IgE Stimulus

SMILES	inhibition at 33 µM [1]	inhibition at 33 µM (at highest dose tested, column head: tested at 33 μM, read-out: % Inhibition of Histamine Release with Anti-IgE Stimulus (at highest dose tested))
COc1ccc2ccc(C(=O)Nc3nn[nH]n3)c(OC)c2c1 [Example 24, 1,7-Dimethoxy-N-1H-tetrazol-5-yl-2-napthalenecarboxamide]	57%	–
CC(C)Oc1c(C(=O)Nc2nnn[nH]2)ccc2ccccc12 [Example 23, 1-(1-Methylethoxy)-N-1H-tetrazol-5-yl-2-naphthalenecarboxamide]	16%	–
COc1ccc2c(OC(C)C)c(C(=O)Nc3nnn[nH]3)ccc2c1 [Example 22, 6-Methoxy-1-(1-methylethoxy)-N-1H-tetrazol-5-yl-2-naphthalenecarboxamide]	71%	–
CC(C)Oc1ccc2ccc(C(=O)Nc3nnn[nH]3)c(OC(C)C)c2c1 [Example 27, 1,7-bis(1-Methylethoxy)-N-1H-tetrazol-5-yl-2-naphthalenecarboxamide]	–	0%
COc1cccc2c(OC(C)C)c(C(=O)Nc3nnn[nH]3)ccc12 [Example 25, 5-Methoxy-1-(1-methylethoxy)-N-1H-tetrazol-5-yl-2-naphthalenecarboxamide]	11%	–
COc1ccc2ccc(C(=O)Nc3nnn[nH]3)c(OC(C)C)c2c1 [Example 26, 7-Methoxy-1-(1-methylethoxy)-N-1H-tetrazol-5-yl-2-naphthalenecarboxamide]	91%	–
